Measurements published in the NIST ThermoML archive (doi:10.1016/j.jct.2005.02.014).

Assay: molar heat capacity at constant pressure
Details: 101.33 kPa, Crystal

[Gd+3].[Gd+3].[O-2].[O-2].[O-2] [gadolinium sesquioxide]
Details	molar heat capacity at constant pressure [J/K/mol]
177.31 K	80.7
178.65 K	81.16
179.29 K	81.37
180 K	81.58
181.27 K	81.94
181.59 K	82.04
183.25 K	82.48
184.54 K	82.86
185.23 K	83.08
187.21 K	83.64
187.49 K	83.73
189.2 K	84.23
190.44 K	84.56
191.18 K	84.81
193.16 K	85.14
193.39 K	85.31
195.15 K	85.81
196.34 K	86.05
197.13 K	86.3
199.11 K	86.89
199.29 K	86.89
200 K	87.05
201.1 K	87.39
202.24 K	87.63
203.08 K	87.88
205.07 K	88.38
205.19 K	88.38
207.05 K	88.8
208.15 K	89.05
209.04 K	89.3
211.03 K	89.8
211.11 K	89.8
213.01 K	90.21
214.07 K	90.46
215 K	90.71
216.99 K	91.13
217.03 K	91.13
218.97 K	91.54
219.98 K	91.79
220 K	91.79
220.96 K	92.04
222.94 K	92.46
222.95 K	92.46
224.93 K	92.87
225.89 K	93.04
226.92 K	93.29
228.85 K	93.7
228.91 K	93.62
230.9 K	94.12
231.81 K	94.2
232.89 K	94.45
234.77 K	94.87
234.87 K	94.87
236.86 K	95.28
237.72 K	95.45
238.17 K	95.62
238.8 K	95.53
240 K	95.87
240.35 K	95.95
240.69 K	95.95
242.83 K	96.36
243.65 K	96.53
245.3 K	96.78
246.61 K	97.03
247.77 K	97.28
249.58 K	97.53
250.25 K	97.61
252.54 K	98.11
252.72 K	98.11
255.2 K	98.19
255.52 K	98.28
257.67 K	98.78
258.49 K	98.86
260 K	99.11
260.15 K	99.19
261.46 K	99.44
262.63 K	99.61
264.43 K	99.86
265.1 K	100
267.4 K	100.4
267.57 K	100.4
270.05 K	100.8
270.36 K	100.9
272.53 K	101.2
273.33 K	101.3
275.01 K	101.6
276.31 K	101.8
277.49 K	102
279.28 K	102.3
279.96 K	102.3
280 K	102.3
282.25 K	102.7
282.44 K	102.6
284.92 K	103
285.23 K	103.1
287.4 K	103.4
288.2 K	103.5
289.88 K	103.8
291.17 K	104
292.35 K	104.1
294.15 K	104.4
294.83 K	104.5
297.13 K	105
297.32 K	105
298.15 K	105.1
299.8 K	105.2
300 K	105.2
300.11 K	105.2
302.28 K	105.4
303.09 K	105.6
304.77 K	105.6
304.91 K	105.8
306.07 K	106
307.26 K	106
307.89 K	106.2
309.06 K	106.4
309.74 K	106.4
310.86 K	106.6
312.04 K	106.7
312.23 K	106.7
313.84 K	106.8
314.72 K	106.9
315.03 K	107
316.82 K	107.2
317.21 K	107.2
318.02 K	107.3
319.7 K	107.4
319.8 K	107.6
320 K	107.6
321.01 K	107.7
322.19 K	107.8
322.77 K	108
324 K	108.1
324.68 K	108.2
325.75 K	108.3
326.99 K	108.4
327.18 K	108.3
329.67 K	108.6
331.72 K	108.9
334.69 K	109.2
337.67 K	109.5
340 K	109.7
340.65 K	109.8
343.63 K	110
346.62 K	110.3
349.6 K	110.6
352.59 K	110.8
355.58 K	111.1
358.57 K	111.4
360 K	111.5
361.56 K	111.6
364.55 K	111.9
367.55 K	112
370.55 K	112.2
373.55 K	112.5
376.55 K	112.7
379.55 K	113
380 K	113
382.56 K	113.2
385.56 K	113.4
388.57 K	113.6
391.59 K	113.8
394.6 K	113.9
397.62 K	114
400.65 K	114.2
